Assay [1] concerns the target T1, recombinant human IL17a (binding to its receptor IL17R) (Homo sapiens, UniProt Q16552).
T1 construct: purchased R&D Systems 317-ILB (IL17a); 177-IR (IL17R/Fc)
T1 sequence (Q16552 20-155 limits assumed): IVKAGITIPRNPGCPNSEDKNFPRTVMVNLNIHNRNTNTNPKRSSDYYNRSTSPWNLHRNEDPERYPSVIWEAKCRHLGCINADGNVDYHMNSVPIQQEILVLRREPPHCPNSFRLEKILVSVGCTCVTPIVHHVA
Description: IL-17 competition ELISA I (IL17a coated, IL17R/Fc binding). An outline of the steps: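 Plates coated with 20 nM recombinant human IL17a received compound dilutions and 12 nM IL17R/Fc (final) for 30 min at room temperature. Bound receptor was detected with HRP anti-human Fc and TMB, read at 450 nm. IC50 came from a 4-parameter logistic fit between no-competitor and blank controls.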
In general terms: In an ELISA, binding on a coated surface is turned into a signal by an enzyme label.

The target of assay [2] is T2, biotinylated human IL-17 (binding to IL17R/Fc) (Homo sapiens, UniProt Q16552).
T2 construct: purchased R&D Systems 317-ILB (IL-17, biotinylated); 177-IR (IL17R/Fc)
T2 sequence (Q16552 20-155 limits assumed): T1 sequence (Q16552 20-155 limits assumed)
The assay is described as follows: IL-17 competition ELISA II (captured IL17R/Fc, biotinylated IL-17). The gist of the method:
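Competition read-out: absorbance at 450 nm after streptavidin-HRP/TMB detection, fitted to a 4-parameter logistic model bounded by no-competitor and blank wells to give IC50. Compound was serially diluted 5-fold from 1 μM alongside 20 nM (stock) biotinylated IL-17 on IL17R/Fc (10 nM) captured via goat anti-human IgG, 30 min at room temperature.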

Assay [3] concerns IL-17A induced secretion of IL-6 in primary human RASF cells. The assay is described as follows: Inhibition of IL17A induced secretion of IL6 in human rheumatoid arthritis synovial fibroblast (RASF) cells. In kind it is cell-based. The settings on record: Homo sapiens, Fibroblast. An outline of the steps: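 Primary RASF cells (passage 2-8) stimulated 20 h at 37 °C with rhIL-17A (30 ng/mL) pre-incubated 1 h with compound (final 0.03-25 μM, 0.25% DMSO). Supernatant IL-6 measured by ELISA, normalized to WST1 viability; triplicates.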

As usually defined, the IC50 is the concentration needed to halve the response being measured.

As to `O=C1CNC(=O)[C@@H](Cc2ccc(NC(=O)[C@H](Cc3ccccc3Cl)NC(=O)Cc3ccc(CO)cc3)cc2)NC(=O)CC2(CCCC2)CC(=O)NCCCCCN1` [Compound 218], the 50% inhibitory concentration (IC50) in assay [1], in assay [2] and in assay [3] was less than 100 nM each time.
As for `O=C1CNC(=O)[C@@H](Cc2ccc(NC(=O)[C@H](Cc3ccccc3Cl)NC(=O)CC3CCCCC3)cc2)NC(=O)CC2(CCCC2)CC(=O)NCCCCCN1` [Compound 236], the half-maximal inhibitory concentration (IC50) in assay [1] was less than 100 nM; in assay [3], 1000 to 10000 nM.
On to `O=C1CNC(=O)[C@@H](Cc2ccc(NC(=O)[C@H](CC3CCC3)NC(=O)Cc3ccccc3)cc2)NC(=O)CC2(CCCC2)CC(=O)NCCCCCN1` [Compound 246], for which the IC50 was less than 100 nM in assay [1], less than 100 nM in assay [2] and more than 10000 nM in assay [3].
`CC1(C)CC(=O)NCCCCCNC(=O)CNC(=O)[C@@H](Cc2ccc(NC(=O)[C@@H](NC(=O)Cc3ccccc3)C3CCCCC3)cc2)NC(=O)C1` [Compound 251]: the half-inhibitory concentration (IC50) in assay [1] is 100 to 1000 nM; in assay [3], 1000 to 10000 nM.
In the same order, the values of `CC1(C)CC(=O)NCCCCCNC(=O)CNC(=O)[C@@H](Cc2ccc(NC(=O)[C@@H](NC(=O)Cc3ccc(O)cc3)C3CCCCC3)cc2)NC(=O)C1` [Compound 253] are 100 to 1000 nM and 1000 to 10000 nM.
In the same order, the values of `CC1(C)CC(=O)NCCCCCNC(=O)CNC(=O)[C@@H](Cc2ccc(NC(=O)[C@@H](NC(=O)c3cccnc3)C3CCCCC3)cc2)NC(=O)C1` [Compound 254] are 1000 to 10000 nM and more than 10000 nM.
Turning to `CN1CCNC(=O)CNC(=O)[C@@H](Cc2ccc(NC(=O)[C@H](Cc3ccccc3Cl)NC(=O)Cc3ccc(O)cc3)cc2)NC(=O)CC2(CCCC2)CC(=O)NCC1` [Compound 260], the IC50 in assay [1] was less than 100 nM; in assay [3] it was 1000 to 10000 nM.
With `O=C1CC2(CCCC2)CC(=O)N[C@H](Cc2ccc(NC(=O)[C@H](Cc3ccccc3Cl)NC(=O)Cc3ccccc3)cc2)C(=O)N[C@H](Cc2ccccc2)C(=O)NCCCCCN1` [Compound 261], the half-inhibitory concentration (IC50) in assay [1] was less than 100 nM; in assay [3] it was 1000 to 10000 nM.
On to `O=C1CC2(CCCC2)CC(=O)N[C@H](Cc2ccc(NC(=O)[C@H](Cc3ccccc3Cl)NC(=O)Cc3ccc(O)cc3)cc2)C(=O)NCCCCCCCCN1` [Compound 263], for which the IC50 in assay [1] was less than 100 nM; in assay [3], 1000 to 10000 nM.
Regarding `CC(=O)N[C@@H](Cc1ccccc1Cl)C(=O)Nc1ccc(C[C@H]2NC(=O)CC3(CCCC3)CC(=O)N[C@H](C(=O)O)CCCCNC(=O)CNC2=O)cc1` [Compound 264], the results for the IC50 in assay [1], in assay [2] and in assay [3] were less than 100 nM, less than 100 nM and 100 to 1000 nM, respectively.
Take `O=C1CNC(=O)[C@@H](Cc2ccc(NC(=O)[C@H](Cc3ccccc3Cl)NC(=O)c3cccnc3)cc2)NC(=O)CC2(CCCC2)CC(=O)N[C@H](C(=O)O)CCCCN1` [Compound 266]: the IC50 in assay [1] is less than 100 nM; in assay [2], less than 100 nM; in assay [3] it was 100 to 1000 nM.
As to `CNC(=O)N[C@@H](Cc1ccccc1Cl)C(=O)Nc1ccc(C[C@H]2NC(=O)CC3(CCCC3)CC(=O)NCCCCCNC(=O)CNC2=O)cc1` [Compound 273], the IC50 was 100 to 1000 nM in assay [1], less than 100 nM in assay [2] and 1000 to 10000 nM in assay [3].
The corresponding values for `CN(C)C(=O)N[C@@H](Cc1ccccc1Cl)C(=O)Nc1ccc(C[C@H]2NC(=O)CC3(CCCC3)CC(=O)NCCCCCNC(=O)CNC2=O)cc1` [Compound 274] are less than 100 nM, less than 100 nM and 100 to 1000 nM.
In the same order, the values of `C[C@H]1NC(=O)[C@@H](Cc2ccc(NC(=O)[C@H](Cc3ccccc3Cl)NC(=O)Cc3ccccc3)cc2)NC(=O)CC2(CCCC2)CC(=O)NCCCCCNC1=O` [Compound 288] are less than 100 nM, less than 100 nM and less than 100 nM.
The corresponding values for `O=C1CNC(=O)[C@@H](Cc2ccc(NC(=O)[C@H](CC3CCCCC3)NC(=O)Cc3ccccc3)cc2)NC(=O)CC2(CCCC2)CC(=O)NCCCCCN1` [Compound 293] are 100 to 1000 nM, less than 100 nM and 1000 to 10000 nM.
On to `O=C1CNC(=O)[C@@H](Cc2ccc(NC(=O)[C@H](Cc3ccccc3Cl)NC(=O)NCc3ccccc3)cc2)NC(=O)CC2(CCCC2)CC(=O)NCCCCCN1` [Compound 302], for which the values for the 50% inhibitory concentration (IC50) in assay [1], in assay [2] and in assay [3] were less than 100 nM, less than 100 nM and 100 to 1000 nM, respectively.
For `O=C1CNC(=O)[C@@H](Cc2ccc(NC(=O)[C@H](Cc3ccccc3Cl)NC(=O)Cc3ccc(F)cc3)cc2)NC(=O)CC2(CCCC2)CC(=O)NCCCCCN1` [Compound 305], the IC50 is less than 100 nM in assay [1], less than 100 nM in assay [2] and 100 to 1000 nM in assay [3].
As to `O=C1CNC(=O)[C@@H](Cc2ccc(NC(=O)[C@@H](NC(=O)Cc3ccccc3)C3CCCCC3)cc2)NC(=O)CC2(CCCC2)CC(=O)N[C@H](C(=O)O)CCCCN1` [Compound 316], the IC50 in assay [1] is less than 100 nM; in assay [2], less than 100 nM; in assay [3], 100 to 1000 nM.
As to `CN1CCCCCNC(=O)CNC(=O)[C@@H](Cc2ccc(NC(=O)[C@@H](NC(=O)Cc3ccccc3)C3CCCCC3)cc2)NC(=O)CC2(CCCC2)CC1=O` [Compound 332], the IC50 was 100 to 1000 nM in assay [1], less than 100 nM in assay [2] and 1000 to 10000 nM in assay [3].
As for `O=C1CC2(CCCC2)CC(=O)N[C@H](Cc2ccc(NC(=O)[C@@H](NC(=O)Cc3ccc(CO)cc3)C3CCCCC3)cc2)C(=O)N[C@H](Cc2ccccc2)C(=O)NCCCCCN1` [Compound 336], the IC50 in assay [1] is 100 to 1000 nM; in assay [2] it was less than 100 nM; in assay [3], 100 to 1000 nM.
Turning to `O=C1CNC(=O)[C@@H](Cc2ccc(NC(=O)[C@H](Cc3ccccc3Cl)NC(=O)Cc3ccccc3)cc2)NC(=O)CC2(CCCC2)CC(=O)NCCNCCN1` [Compound 338], the results for the IC50 in assay [1], in assay [2] and in assay [3] were 100 to 1000 nM, less than 100 nM and more than 10000 nM, respectively.
`COC(=O)[C@@H]1CCCCNC(=O)CNC(=O)[C@@H](Cc2ccc(NC(=O)[C@@H](NC(=O)c3cccnc3)C3CCCCC3)cc2)NC(=O)CC2(CCCC2)CC(=O)N1` [Compound 352]: the IC50 is 1000 to 10000 nM in assay [1] and more than 10000 nM in assay [3].
For the compound `CC(O)[C@H]1NC(=O)[C@@H](Cc2ccc(NC(=O)[C@H](Cc3ccccc3Cl)NC(=O)C(F)(F)c3ccccc3)cc2)NC(=O)CC2(CCCC2)CC(=O)N(C)CCOCCN(C)C1=O` (stereo partly drawn) [Compound 639], the results for the 50% inhibitory concentration (IC50) in assay [2] and in assay [3] were less than 100 nM and 1000 to 10000 nM, respectively.
In the same order, the values of `CN1CCCCCN(C)C(=O)[C@@H](CCC(N)=O)NC(=O)[C@@H](Cc2ccc(NC(=O)[C@H](Cc3ccccc3Cl)NC(=O)C(F)(F)c3ccccc3)cc2)NC(=O)CC2(CCCC2)CC1=O` [Compound 645] are less than 100 nM and 100 to 1000 nM.
In the case of `CN1CCCCCN(C)C(=O)[C@@H](CCC(N)=O)NC(=O)[C@@H](Cc2ccc(NC(=O)[C@@H](NC(=O)Cc3cccc(O)c3)C3CCCCC3)cc2)NC(=O)CC2(CCCC2)CC1=O` [Compound 646], the IC50 in assay [2] was less than 100 nM; in assay [3], 1000 to 10000 nM.
For the compound `CN1CCCCCN(C)C(=O)[C@@H](CCC(N)=O)NC(=O)[C@@H](Cc2ccc(NC(=O)[C@@H](NC(=O)Cc3ccc(CO)cc3)C3CCCCC3)cc2)NC(=O)CC2(CCCC2)CC1=O` [Compound 653], the IC50 in assay [2] is less than 100 nM; in assay [3], 1000 to 10000 nM.
The corresponding values for `NC(=O)C[C@H]1NC(=O)[C@@H](Cc2ccc(NC(=O)[C@H](Cc3ccccc3Cl)NC(=O)Cc3ccc(CO)cc3)cc2)NC(=O)CC2(CCCC2)CC(=O)N[C@H](C(=O)O)CCCCNC1=O` [Compound 656] are less than 100 nM and less than 100 nM.
For the compound `O=C1CC2(CCCC2)CC(=O)N[C@H](Cc2ccc(NC(=O)[C@H](Cc3ccccc3Cl)NC(=O)Cc3ccc(CO)cc3)cc2)C(=O)N[C@H](Cc2cccnc2)C(=O)NCCCC[C@@H](C(=O)O)N1` [Compound 657], the IC50 in assay [2] and in assay [3] was less than 100 nM each time.
As to `O=C1CC2(CCCC2)CC(=O)N[C@H](Cc2ccc(NC(=O)[C@H](Cc3ccccc3Cl)NC(=O)Cc3ccc(CO)cc3)cc2)C(=O)N[C@H](Cc2cscn2)C(=O)NCCCC[C@@H](C(=O)O)N1` [Compound 658], the IC50 in assay [2] and in assay [3] was less than 100 nM each time.
Turning to `CC(C)C[C@H]1NC(=O)[C@@H](Cc2ccc(NC(=O)[C@H](Cc3ccccc3Cl)NC(=O)Cc3ccc(CO)cc3)cc2)NC(=O)CC2(CCCC2)CC(=O)N[C@H](C(=O)O)CCCCNC1=O` [Compound 660], the half-maximal inhibitory concentration (IC50) in assay [2] and in assay [3] was less than 100 nM each time.
Regarding `O=C1CC2(CCCC2)CC(=O)N[C@H](Cc2ccc(NC(=O)[C@H](Cc3ccccc3Cl)NC(=O)Cc3ccc(CO)cc3)cc2)C(=O)N[C@H](Cc2c[nH]c3ccccc23)C(=O)NCCCC[C@@H](C(=O)O)N1` [Compound 661], the IC50 in assay [2] and in assay [3] was less than 100 nM each time.
Turning to `O=C1CC2(CCCC2)CC(=O)N[C@H](Cc2ccc(NC(=O)[C@H](Cc3ccccc3Cl)NC(=O)Cc3ccc(CO)cc3)cc2)C(=O)N[C@H](Cc2c[nH]cn2)C(=O)NCCCC[C@@H](C(=O)O)N1` [Compound 662], the IC50 in assay [2] and in assay [3] was less than 100 nM throughout.

The values above are taken from patent US9284283B2, “Macrocyclic compounds for modulating IL-17” (ENSEMBLE THERAPEUTICS CORPORATION, priority 2012, dated 2016).
